For assay [1], the system named is HCT-8/E11 cells. The assay is described as follows: Single cell collagen invasion assay, HCT-8/E11. As to conditions: for CM^BM-MSC-induced invasion (invasion index) / CM^BM-MSC-induced morphological response (factor shape): cetuximab 3 μM, lapatinib 1 μM, trastuzumab and pertuzumab 25 μg/ml. In kind it is cell-based, human. The method, then:
(§1) Collagen invasion assays were performed as described previously (45). Briefly, 1×10^5 CRC cells were seeded on type I collagen-coated 6-well plates and treated with CM derived from 5×10^5 BM-MSC or T-MC supplemented with DMEM 10% FBS and antibiotics as indicated.
(§2) Morphology and invasion into collagen was analysed after 24 hours and quantified by means of the factor shape ([perimeter]^2/[4πarea]) and invasion index. The number of invasive and noninvasive cells was counted in 10 randomly selected microscopic fields with a 20× objective and 10× eye piece by two blinded observers using an inverted phase-contrast microscope (DMI 3000B; Leica, Wetzlar, Germany). The invasion index was calculated as the ratio of the number of cells that invaded the gel divided by the total number of cells counted in each field. Collagen matrices were fixed in 3% paraformaldehyde for 10 minutes and phalloidin-TRITC (Sigma-Aldrich) staining as described (45). Cells were imaged with a Zeiss 510 META confocal laser-scanning microscope (Carl Zeiss, Micro-imaging Inc., Heidelberg, Germany) using a 488 argon and a 543 HeNe laser. Images were acquired using a Plan Apochromat 63×/1.4 oil DIC or a Plan Apochromat 100×/1.4 oil DIC objective. All the images shown are collapsed z-stacks.

Assay [2] concerns AKT. The assay is described as follows: Western blot of S473 p-AKT (AKT activation) in HCT-8/E11 cells. In kind it is cell-based, human. As to conditions: for reduction of AKT activation (S473 p-AKT) in CM^BM-MSC-treated cells: HCT-8/E11, CM^BM-MSC 15 minutes, cetuximab 3 μM, lapatinib 1 μM, trastuzumab and pertuzumab 25 μg/ml. On the procedure: (§3) Cells were harvested with Laemmli lysis buffer (0.125M Tris-HCl (pH=6.8), 10% glycerol, 2.3% sodium dodecyl sulfate [SDS]). Cell surface proteins were isolated by biotinylation (Pierce). For the detection of phosphorylated proteins, cells were grown at 70% confluence and treated for 15 minutes as indicated. Cells were harvested with NP-40 lysis buffer (1% Nonidet P-40 [NP-40][Sigma-Aldrich], 1% Triton X-100 [Bio-Rad] in phosphate-buffered saline [PBS]) and the following protease inhibitors: aprotinin (10 μg/mL), leupeptin (10 μg/mL) (ICN Biomedicals, Costa Mesa, Calif.), phenylmethylsulfonyl fluoride (1.72 mM), NaF (100 mM), NaVO3 (500 mM), and Na4P2O7 ([…]) (Sigma-Aldrich). Cell lysates (25 μg) and CM (20 μl) were suspended in Laemmli sample buffer and boiled for 5 minutes at 95° C. For immunoprecipitation, cells were harvested with NP-40 lysis buffer, and protease inhibitors. Anti-rabbit antibodies were covalently coupled to sheep anti-rabbit IgG dynabeads (Invitrogen) and then incubated for 2 hours at 4° C. with 500 μg of cell lysate or normal rabbit IgG antibody (R&D Systems) as a negative control. Immunoprecipitates were washed five times with lysis buffer, eluted with 100 μl of Laemmli lysis buffer, and boiled at 95° C. for 5 minutes. Samples were run on NuPAGE 4%-20% Bis-Tris gradient gels (Invitrogen), transferred to polyvinylidene fluoride membranes, blocked in 5% nonfat milk in PBS or 4% bovine serum albumin (BSA) in PBS for phosphorylated proteins with 0.5% Tween-20, and immunostained. Scanning densitometry was carried out with the Quantity One Program (Bio-Rad).
Background: In western blotting, separated proteins are transferred to a membrane and probed.

For assay [3], the system named is HER3. The assay is described as follows: Western blot of Y1289 p-HER3 (HER3 activation) in HCT-8/E11 cells. In kind it is cell-based, human. As to conditions: for decrease in CM^BM-MSC-induced HER3 activation (Y1289 p-HER3): HCT-8/E11, CM^BM-MSC 15 minutes, cetuximab 3 μM, lapatinib 1 μM, trastuzumab and pertuzumab 25 μg/ml. On the procedure:
as §3

For assay [4], the target named is HER3 (human) (UniProt P21860). The assay is described as follows: cell-based or functional assay.
Assay [5] deals with HCT-8/E11 cells. The experiment in a line: Assessment of cell numbers (viable cells, serum-free). In kind it is cell-based, human. The method, then: To assess the effect of rNRG-β1 or CM on cell numbers, a total of 9 wells of seeded cells were counted for each condition (triplicate samples×3 countings). First, 1×10^4 CRC cells were seeded on a 6-well plate in DMEM supplemented with 10% FCS. After 24 hours, cells were treated as indicated under serum-free conditions; medium was changed every 3 days. The total number of viable cells in each well was counted with a Countess automated cell counter (Invitrogen) every three days for 9 days; trypan blue staining was used for exclusion of dead cells.

The test system of assay [6] is HCT-8/E11+BM-MSC xenografts. The assay is described as follows: s.c. xenografts of HCT-8/E11 cells with BM-MSC in Swiss nu/nu mice. In kind it is in vivo. On the procedure:
Animal studies were approved by the Local Ethical Committee for Animal Experiments, Faculty of Medicine and Health Sciences, Ghent University, Belgium. Four-week-old female Swiss nu/nu mice (10 animals per group) (Charles River Laboratories, Brussels, Belgium) were inoculated subcutaneously (s.c.) with 10^6 CRC cells (HCT-8/E11, SW480 and HCT 116) either alone or combined with 2×10^6 BM-MSC suspended in 100 μl sterile PBS. To assess the effect of soluble factors on tumorigenesis, mice were inoculated s.c. with 10^6 cancer cells in 100 μl sterile CM derived from 2.5×10^6 BM-MSC, or control medium. For these experiments, intratumoral injection of the CM (50 μl) was performed every three days. […] Tumor volume was estimated by using the equation, V=0.4×a×b^2, where V is the volume, a is the length of the major axis of the tumor, and b is the length of its minor axis. he animals were sacrificed when the tumors were approximately 1-1.5 cm^3, in compliance with regulations for the use of vertebrate animals in research. Primary tumors were extracted, weighted and fixed in 4% buffered formol for 12 hours, followed by a wash with PBS. Fixed tumors were transferred to 70% ethanol until use. Tumors were embedded in paraffin, sectioned and stained with H&E. Immunohistochemistry (IHC) using TUNEL, anti-α-SMA (Biogenex), anti-vimentin and anti-Ki67 antibodies was performed on paraffin sections, using a NexES automated slide staining system (Ventana Medical Systems, Tucson, Ariz.). Cell proliferation (Ki67 positivity) was quantified as % of positive cancer cells per high power field averaged across 12 images from 2 primary tumors per cell line.

For assay [7], the system named is SW480 cells. The experiment in a line: Single cell collagen invasion assay, SW480. In kind it is cell-based, human. As to conditions: SW480, 10 ng/ml, 24 hours, P=0.003. On the procedure:
as §1, §2

The test system of assay [8] is BAX/BCL-2. The assay is described as follows: Western blot of BAX and BCL-2 expression in HCT-8/E11. In kind it is cell-based, human. As to conditions: HCT-8/E11, 10 ng/ml, 6 hours. The method, then:
as §3, with “Samples were run on NuPAGE 4%-20% Bis-Tris gradient gels (Invitrogen), transferred to polyvinylidene fluoride membranes, blocked in 5% nonfat milk in PBS or 4% bovine serum albumin (BSA) in PBS for phosphorylated proteins with 0.5% Tween-20, and immunostained.” left out

Assay [9] has as its system PARP. The experiment in a line: Western blot of PARP cleavage in HCT 116. In kind it is cell-based, human. As to conditions: HCT 116, 10 ng/ml, 6 hours, compared to controls. On the procedure: as §3, with “Samples were run on NuPAGE 4%-20% Bis-Tris gradient gels (Invitrogen), transferred to polyvinylidene fluoride membranes, blocked in 5% nonfat milk in PBS or 4% bovine serum albumin (BSA) in PBS for phosphorylated proteins with 0.5% Tween-20, and immunostained.” left out

Assay [10] concerns BAD. The assay is described as follows: Western blot of S136 p-BAD in HCT-8/E11. In kind it is cell-based, human. As to conditions: rNRG-β1-treated HCT-8/E11. On the procedure: as §3, with “Samples were run on NuPAGE 4%-20% Bis-Tris gradient gels (Invitrogen), transferred to polyvinylidene fluoride membranes, blocked in 5% nonfat milk in PBS or 4% bovine serum albumin (BSA) in PBS for phosphorylated proteins with 0.5% Tween-20, and immunostained.” left out

Assay [11] concerns HER2. The assay is described as follows: Western blot of Y1196 and Y1248 p-HER2 in HCT-8/E11. In kind it is cell-based, human. As to conditions: 10 ng/ml, 15 minutes. On the procedure:
as §3, with “Samples were run on NuPAGE 4%-20% Bis-Tris gradient gels (Invitrogen), transferred to polyvinylidene fluoride membranes, blocked in 5% nonfat milk in PBS or 4% bovine serum albumin (BSA) in PBS for phosphorylated proteins with 0.5% Tween-20, and immunostained.” left out

The test system of assay [12] is HCT 116 cells. The experiment in a line: Single cell collagen invasion assay, HCT 116. In kind it is cell-based, human. As to conditions: HCT 116, 10 ng/ml, 24 hours, P=0.007. The method, then: as §1, §2

The values below come from patent publication US9279812B2, “Neuregulin-1-based prognosis and therapeutic stratification of colorectal cancer” (UNIVERSITEIT GENT, priority 2011, dated 2016).

With `Cn1ncc(Cl)c1-c1cc(C(=O)N[C@H](CN)Cc2ccc(F)c(F)c2)oc1Cl` [GSK2141795], the “CM^BM-MSC-induced invasion” value is “able to block” in assay [1] (0.1 μM, 24 hours) and “able to block” in assay [1] (1 μM, 24 hours).

`CS(=O)(=O)CCNCc1ccc(-c2ccc3ncnc(Nc4ccc(OCc5cccc(F)c5)c(Cl)c4)c3c2)o1` [lapatinib]: the “reduction of AKT activation (S473 p-AKT) in CM^BM-MSC-treated cells” value in assay [2] was 82%. Moreover, in [3], the “decrease in CM^BM-MSC-induced HER3 activation (Y1289 p-HER3)” value came to 72%. Moreover, in [1], the “CM^BM-MSC-induced invasion (invasion index)” value is recorded as “blocked” and the “CM^BM-MSC-induced morphological response (factor shape)” value is on record as “blocked”.

On to “Recombinant human NRG-β1 EGF domain (from UniProt Q02297 177-241) (ligand)”, for which, in assay [4], the Y1289 p-HER3 in HCT-8/E11 cells, Western blot, 15 minutes came out at 0.25 ng/mL.

Consider “pertuzumab: recombinant, humanized mAb that specifically binds HER2 and prevents HER2 homo- and HER2/HER3 heterodimerisation”, for which, in assay [2], the “reduction of AKT activation (S473 p-AKT) in CM^BM-MSC-treated cells” value is 79%. Besides, the “decrease in CM^BM-MSC-induced HER3 activation (Y1289 p-HER3)” value in [3] was determined as 67%. Moreover, the “CM^BM-MSC-induced CRC cell survival (total number of viable cells)” value in [5] (pertuzumab 25 μg/ml, HCT-8/E11) is recorded as “significantly decreased”. Besides, the “number of viable cells under control conditions” value in assay [5] (pertuzumab 25 μg/ml, no CM) is recorded as “no statistically significant effect”. Also, the “CM^T-MC-increased growth of HCT-8/E11 cells (trophic effect)” value in assay [5] (pertuzumab 25 μg/ml, serum-free) is listed as “blocked”. Further, in [6] (600 μg/mouse i.p.), the “BM-MSC-enhanced tumorigenesis of HCT-8/E11 cells” value is listed as “significantly delayed”. The tumor weight result in assay [6] (600 μg/mouse i.p. three times a week, P=0.004) is “decreased”. For the same molecule, the tumor volume entry in assay [6] (600 μg/mouse i.p. three times a week, P=0.035) is listed as “reduced”. Also, the “Ki67 proliferation index, difference vehicle vs treatment” value in assay [6] (95% CI −4.8 to 15.2, P=0.276) came out at 5.2. In assay [6] (viable areas of resected xenografts), the Ki67 proliferation index entry is recorded as “did not significantly affect”. Also, the “CM^T-MC-increased invasion” value in assay [1] (HCT-8/E11, 24 hours, pertuzumab 25 μg/ml) is on record as “partly inhibited”. In [1], the “CM^BM-MSC-induced invasion (invasion index)” value is “blocked” and the “CM^BM-MSC-induced morphological response (factor shape)” value is “blocked”.

B1: rNRG-β1: Recombinant human NRG-β1 EGF domain supplied by R&D Systems (protein)
chain: SHLVKCAEKEKTFCVNGGECFMVKDLSNPSRYLCKCPNEFTGDRCQNYVMASFYKHLGIEFMEAE
With B1, in assay [2] (rNRG-β1-treated HCT-8/E11), the “levels of S473 p-AKT” value was “higher levels”. Besides, the “concentration at which phosphorylation of HER3 was significant” value in assay [3] (HCT-8/E11, 15 minutes) was determined as 0.25 ng/mL. Also, the “morphological changes and invasion into a collagen matrix” value in assay [7] is “induced”; in assay [1] (HCT-8/E11, 10 ng/ml, 24 hours, P=0.049) it was “induced”; in [12] it was “induced”. Further, the BAX/BCL-2 ratio result in assay [8] is reported as “reduced”. Also, the HCT-8/E11 cell number entry in assay [5] (0.1, 1, 10 ng/ml, serum-free, P=0.002 at 10 ng/ml) is “dose-dependent increase”. Also, in [9], the PARP cleavage result is reported as “reduced”. The “levels of S136 p-BAD” value in assay [10] was “higher levels”. Further, the HER2 activation entry in assay [11] is given as “induced HER2 activation”.
